{"source": "paper PMC11952641", "about": "“A Novel D-peptide modulates DCLK1 Gelsolin interactions, reducing PDAC tumor growth” (Research Square, 2025)", "molecules": {"B1": {"name": "human DCLK1 isoform 4 (β-short) (natural protein, UniProt O15075-4 1-433, looked up)", "chain": "MLELIEVNGTPGSQLSTPRSGKSPSPSPTSPGSLRKQRSSQHGGSSTSLASTKVCSSMDENDGPGEEVSEEGFQIPATITERYKVGRTIGDGNFAVVKECVERSTAREYALKIIKKSKCRGKEHMIQNEVSILRRVKHPNIVLLIEEMDVPTELYLVMELVKGGDLFDAITSTNKYTERDASGMLYNLASAIKYLHSLNIVHRDIKPENLLVYEHQDGSKSLKLGDFGLATIVDGPLYTVCGTPTYVAPEIIAETGYGLKVDIWAAGVITYILLCGFPPFRGSGDDQEVLFDQILMGQVDFPSPYWDNVSDSAKELITMMLLVDVDQRFSAVQVLEHPWVNDDGLPENEHQLSVAGKIKKHFNTGPKPNSTAAGVSVIATTALDKERQVFRRRRNQDVRSRYKAQPAPPELNSESEDYSPSSSETVRSPNSPF", "modifications": "biotin (NHS-LC-biotin) in the library screen only", "notes": "human DCLK1 isoform 4 (β-short, NP_001182345); also called Doublecortin-like kinase 1 isoform 4; beta-short; source: E. coli BL21(DE3) pLPP with the pET19-DCLK1 isoform 4 plasmid, purified"}}, "key": {"AsPC-1 xenografts": {"system": "AsPC-1 xenografts", "assay": "AsPC-1 xenograft tumor growth in athymic nude mice", "format": "in vivo, athymic nude (Foxn1nu/Foxn1nu) mice", "settings": "10 mg/kg subcutaneously every three days; day 36", "protocol": "Athymic nude (Foxn1^nu/Foxn1^nu) mice were purchased from the Jackson Laboratory (Bar Harbor, Maine) and housed in pathogen-free conditions. AsPC-1 cells (1 × 10^7) were injected subcutaneously into the flanks of 4- to 6-week-old mice (n=3/group). Tumors were measured using a caliper and the volume was calculated as (length × width^2) × 0.5. Once tumors achieved an average size of ~100 mm^3, mice were injected subcutaneously with selected D-peptides at a dose of 10 mg/kg. Treatments were continued every three days until day 36."}, "DCLK1 isoform 1": {"system": "DCLK1 isoform 1", "assay": "Cross-reactivity to DCLK1 isoform 1", "format": "binding, human"}, "DCLK1 isoform 4 [1]": {"system": "DCLK1 isoform 4", "assay": "D-peptide library screen for binding to DCLK1 isoform 4, excluding isoform 1 binders", "parameters": "species or system human", "settings": "bead library screen, biotin-labeled DCLK1 isoform 4", "protocol": "An aliquot from each sub-library, containing approximately 1000 beads, was added to a well of a 96-well polystyrene multi-well plate. From 1.5 to 2 ml of Superblock (Pierce Chemical Company, Rockford, IL.) reagent, 0.1% gelatin, or 1%(w/v) bovine serum albumin (BSA) in phosphate-buffered saline (PBS), pH 7.4, was added to each well, and the plates were incubated for one to two hours at room temperature (RT), with periodic or continuous mixing by gentle rocking. Purified DCLK1 isoform 4 protein was labeled with biotin using the biotinylating reagent NHS-LC-biotin (Pierce Chemical Company) according to the supplier’s instructions. Biotin-labeled protein was detected using AP-conjugated to neutravidin (Pierce Chemical Company) incubated with the beads for 30 minutes, after which the beads were washed three times with a Tris-buffered saline solution (pH 7.5), with the second wash being left in contact with the beads for 30 minutes. One-step NBT/BCIP (nitro-blue tetrazolium chloride/5-bromo-4-chloro-3’-indolyphosphate p-toluidine salt) (Pierce Chemical Co.) was then added and the beads observed under a low-power microscope until some of the beads had turned a dark purple color. The beads were washed with PBS twice, followed by 1% acetic acid and a final wash in water. Dark purple-black beads were removed using a small-bore pipette and subjected to amino acid sequence analysis. […]"}, "DCLK1 isoform 4-pGSN": {"system": "DCLK1 isoform 4-pGSN", "assay": "ELISA: effect of peptides on DCLK1-Gelsolin PPI", "format": "binding, human", "settings": "peptide 20 mg/well (so in the source), pGSN 2 μg/ml, Fig. 3H", "protocol": "(§1) Purification of human DCLK1 isoform 4 was performed at the University of Oklahoma Protein Production and Characterization Core Facility (Norman, OK) using an E. coli strain BL21(DE3) pLPP containing the pET19-DCLK1 isoform 4 plasmid. For Bio-layer Interferometry (BLI) experiments, a C-terminal DCLK1 isoform 2/4 His-tagged protein was used (NovoPro, Shanghai, China). All His-tagged proteins were dialyzed using PBS/glycerol to remove imidazole.\n(§2) Polystyrene microtitre Immulon 2HB plate was coated with freshly prepared (400 ng/50 ml) DCLK1 isoform 4 ([…]) in 0.1 M NaHCO3, pH 8.6, overnight at 4C. After blocking with 1% gelatin in TTBS at RT, different concentrations of gelsolin or FGF19 were added (2 mg/50ul/well, 1 mg/well, 0.5 mg/well, and 0.25 mg/well at […], proteins diluted in TTBS), and incubated at RT. To study the competitive ability of peptides, we used 20 mg/well of either D-peptide 1, D-peptide 3, D-peptide 5, or the C-terminal peptide antigen for the mAb CBT-15. After incubation at RT, plates were washed with TTBS, and bound gelsolin or FGF19 was detected. […] Detection was by alkaline phosphatase-conjugated goat anti-mouse IgG (ab97020; Abcam, Waltham, MA) followed by 1-STEP NBT/BCIP substrate (#34042; ThermoFisher Scientific, Waltham, MA) and quantified at 450 nm on a microplate reader."}, "[2]": {"molecular_target": "T1, DCLK1 isoform 4 (human His-tagged DCLK1 C-terminal recombinant protein) (Homo sapiens, UniProt O15075)", "T1 sequence (O15075 687-740 limits assumed)": "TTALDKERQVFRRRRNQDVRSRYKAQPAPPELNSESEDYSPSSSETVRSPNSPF", "assay": "BLI evaluation of D-peptide binding to DCLK1 NKEBD", "settings": "DCLK1 isoform 4 immobilized on biosensor, PBS/0.05%Tween20/1%DMSO, from 30 μM in a 1:3 series", "protocol": "as §1\nHuman His-tagged DCLK1 C-terminal recombinant protein from NovoPro was used. Binding to the sensor was carried out in PBS/0.05%Tween20/1%DMSO. Response is measured as a nm shift in the interference pattern and is proportional to the number of molecules bound to the biosensor’s surface. Initially, all peptides were tested at 5 and 30 μM. The top binders were tested again with eight different concentrations, starting at 30 μM and diluted in a 1:3 series to determine the dissociation constant (KD)."}, "DCLK1 isoform 4 / CBT-15": {"system": "DCLK1 isoform 4 / CBT-15", "assay": "Competition assay: CBT-15 binding to DCLK1 isoform 4", "parameters": "species or system human", "settings": "Fig. 1D, mean ± SEM, *p < 0.01"}, "[3]": {"system": "Capan-1 pancreatic cancer cells", "assay": "Colony formation assay, Capan-1", "format": "cell-based", "settings": "Fig. 2B, blinded study"}, "[4]": {"system": "AsPC-1 pancreatic cancer cells", "assay": "Colony formation assay, AsPC-1", "format": "cell-based", "settings": "Fig. 2A, blinded study"}, "DCLK1 isoform 4 [5]": {"system": "DCLK1 isoform 4", "assay": "ELISA: FGF19 binding to DCLK1 isoform 4", "parameters": "species or system human", "settings": "RT, 450 nm, Fig. 3H", "protocol": "as §1, §2"}, "DCLK1 isoform 4 [6]": {"system": "DCLK1 isoform 4", "assay": "ELISA: pGSN binding to DCLK1 isoform 4", "parameters": "species or system human", "settings": "1% gelatin blocking, RT, 450 nm, Fig. S2", "protocol": "as §1, §2"}, "DCLK1 isoform 4 [7]": {"molecular_target": "DCLK1 isoform 4", "assay": "SPR binding to DCLK1 isoform 4", "parameters": "species or system human", "settings": "DCLK1 isoform 4 binding to Gelsolin, Fig. 3F", "protocol": "as §1"}, "plasma gelsolin": {"molecular_target": "T2, plasma gelsolin (UniProt P06396 28-782)", "T2 construct": "plasma gelsolin (pGSN), the extracellular form of gelsolin; The source is told for the ELISA only; also called pGSN; source: bought: Abcam (ab233671)", "T2 sequence (P06396 28-782)": "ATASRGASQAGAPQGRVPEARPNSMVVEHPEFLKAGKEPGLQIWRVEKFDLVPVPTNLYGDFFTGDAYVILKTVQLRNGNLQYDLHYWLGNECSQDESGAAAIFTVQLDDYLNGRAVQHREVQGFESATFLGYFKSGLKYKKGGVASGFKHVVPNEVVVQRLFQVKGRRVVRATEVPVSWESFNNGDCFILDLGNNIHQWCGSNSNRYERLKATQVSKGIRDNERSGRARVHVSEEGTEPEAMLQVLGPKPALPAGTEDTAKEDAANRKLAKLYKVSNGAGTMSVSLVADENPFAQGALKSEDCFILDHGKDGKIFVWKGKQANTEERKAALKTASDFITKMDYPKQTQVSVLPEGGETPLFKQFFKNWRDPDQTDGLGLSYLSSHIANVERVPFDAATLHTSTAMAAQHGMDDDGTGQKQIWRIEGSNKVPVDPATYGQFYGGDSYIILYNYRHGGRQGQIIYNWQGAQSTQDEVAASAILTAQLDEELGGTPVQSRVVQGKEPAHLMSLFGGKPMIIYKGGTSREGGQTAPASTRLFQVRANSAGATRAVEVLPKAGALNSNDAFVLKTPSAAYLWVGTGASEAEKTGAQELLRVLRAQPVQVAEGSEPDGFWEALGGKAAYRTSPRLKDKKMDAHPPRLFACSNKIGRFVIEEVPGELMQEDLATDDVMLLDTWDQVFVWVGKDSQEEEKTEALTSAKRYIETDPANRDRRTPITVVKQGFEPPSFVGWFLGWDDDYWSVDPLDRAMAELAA", "assay": "SPR; who was immobilised and the conditions not given", "settings": "both partners purified"}}, "note": "Non-standard residues stand in square brackets, D forms with d. Residues, ends and D or L forms follow the SMILES beside them.", "data": [{"molecule": "NCC(=O)N[C@H](Cc1c[nH]c2ccccc12)C(=O)N[C@H](Cc1ccc(O)cc1)C(=O)NCC(=O)N[C@H](Cc1c[nH]c2ccccc12)C(=O)NCC(=O)N[C@H](CC(=O)O)C(=O)N[C@H](CC(=O)O)C(=O)O", "note": "[D-peptide 1] (H-G[dW][dY]G[dW]G[dD][dD]-OH)", "values": [{"measurement": "necrosis or apoptosis in tumors", "setting": "AsPC-1 xenografts", "result": "without inducing necrosis or apoptosis"}, {"measurement": "cross-reactivity to isoform 1", "setting": "DCLK1 isoform 1", "result": "minimal cross-reactivity to isoform 1"}, {"measurement": "specific binding to isoform 4", "setting": "DCLK1 isoform 4 [1]", "result": "binds specifically to DCLK1 isoform 4"}, {"measurement": "effect on pGSN binding to DCLK1 isoform 4", "setting": "DCLK1 isoform 4-pGSN", "result": "did not block the PPI interaction"}, {"measurement": "improvement of pGSN binding to DCLK1", "setting": "DCLK1 isoform 4-pGSN", "result": "seemed to improve pGSN binding to DCLK1"}, {"measurement": "Kd", "setting": "[2]", "result": 396, "unit": "nM"}, {"measurement": "inhibition of CBT-15 binding to DCLK1 isoform 4", "setting": "DCLK1 isoform 4 / CBT-15", "result": "None of these D-peptides significantly inhibited CBT-15 binding"}, {"measurement": "colony formation", "setting": "[3]", "result": "significantly reduced colony formation at low micromolar concentrations"}, {"measurement": "colony formation", "setting": "[4]", "result": "significantly reduced colony formation at low micromolar concentrations"}]}, {"molecule": "FGF19: candidate DCLK1 interacting protein known to be extracellularly localized (969-FG-025; Bio-Techne)", "values": [{"measurement": "binding to DCLK1 isoform 4", "setting": "DCLK1 isoform 4 [5]", "result": "bound to DCLK1 isoform 4 similarly to pGSN"}]}, {"molecule": "Gelsolin", "values": [{"measurement": "binding to DCLK1 isoform 4 across the gradient", "setting": "DCLK1 isoform 4 [6]", "result": "consistent, linear binding"}, {"measurement": "Kd", "setting": "DCLK1 isoform 4 [7]", "result": "~100", "unit": "nM"}]}, {"molecule": "B1", "values": [{"measurement": "Kd", "setting": "plasma gelsolin", "result": "~100", "unit": "nM"}]}]}
